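Exposure lasted 48 hours, with cells grown in 96-well plates and compounds tested at five concentrations. TGI denotes the concentration required for complete inhibition of growth.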
Columns and labels:
Assay in all cases: NCI tumour cell line growth inhibition, 48 h
RXF-631 renal = test system: RXF-631 renal
XF 498 CNS = test system: XF 498 CNS
HCT-15 colon = test system: HCT-15 colon
SK-MEL-5 melanoma = test system: SK-MEL-5 melanoma
MDA-MB-231 breast = test system: MDA-MB-231 breast
SF-539 CNS = test system: SF-539 CNS
SK-MEL-2 melanoma = test system: SK-MEL-2 melanoma
HOP-92 NSCLC = test system: HOP-92 NSCLC
RPMI-8226 leukemia = test system: RPMI-8226 leukemia
M19-MEL melanoma = test system: M19-MEL melanoma
MALME-3M melanoma = test system: MALME-3M melanoma
SK-OV-3 ovarian = test system: SK-OV-3 ovarian
HOP-18 NSCLC = test system: HOP-18 NSCLC
OVCAR-8 ovarian = test system: OVCAR-8 ovarian
786-0 renal = test system: 786-0 renal
SN12C renal = test system: SN12C renal
UO-31 renal = test system: UO-31 renal
HT29 colon = test system: HT29 colon
SW-620 colon = test system: SW-620 colon
HOP-62 NSCLC = test system: HOP-62 NSCLC
A549 NSCLC = test system: A549 NSCLC
SR leukemia = test system: SR leukemia
HS 578T breast = test system: HS 578T breast
SNB-19 CNS = test system: SNB-19 CNS
BT-549 breast = test system: BT-549 breast
OVCAR-5 ovarian = test system: OVCAR-5 ovarian
SNB-75 CNS = test system: SNB-75 CNS
CCRF-CEM leukemia = test system: CCRF-CEM leukemia
MDA-N = test system: MDA-N
NCI-H226 lung = test system: NCI-H226 lung
DLD-1 colon = test system: DLD-1 colon
SK-MEL-28 melanoma = test system: SK-MEL-28 melanoma
U251 CNS = test system: U251 CNS
ACHN renal = test system: ACHN renal
LOX IMVI melanoma = test system: LOX IMVI melanoma
HCC-2998 colon = test system: HCC-2998 colon
OVCAR-3 ovarian = test system: OVCAR-3 ovarian
IGROV1 ovarian = test system: IGROV1 ovarian
SF-268 CNS = test system: SF-268 CNS
DMS 114 small cell lung = test system: DMS 114 small cell lung
RXF 393 renal = test system: RXF 393 renal
HCT-116 colon = test system: HCT-116 colon
M14 melanoma = test system: M14 melanoma
NCI-H522 lung = test system: NCI-H522 lung
NCI-H23 lung = test system: NCI-H23 lung
MDA-MB-435 = test system: MDA-MB-435
DMS 273 small cell lung = test system: DMS 273 small cell lung
OVCAR-4 ovarian = test system: OVCAR-4 ovarian
K-562 leukemia = test system: K-562 leukemia
SF-295 CNS = test system: SF-295 CNS
EKVX NSCLC = test system: EKVX NSCLC
MCF7 breast = test system: MCF7 breast
UACC-257 melanoma = test system: UACC-257 melanoma
KM20L2 colon = test system: KM20L2 colon
NCI-H460 lung = test system: NCI-H460 lung
DU-145 prostate = test system: DU-145 prostate
TK-10 renal = test system: TK-10 renal
T-47D breast = test system: T-47D breast
PC-3 prostate = test system: PC-3 prostate
SNB-78 CNS = test system: SNB-78 CNS
NCI/ADR-RES ovarian = test system: NCI/ADR-RES ovarian
HL-60(TB) leukemia = test system: HL-60(TB) leukemia
UACC-62 melanoma = test system: UACC-62 melanoma
COLO 205 colon = test system: COLO 205 colon
MOLT-4 leukemia = test system: MOLT-4 leukemia
A498 renal = test system: A498 renal
CAKI-1 renal = test system: CAKI-1 renal
KM12 colon = test system: KM12 colon
SN12K1 renal = test system: SN12K1 renal
P388 leukemia = test system: P388 leukemia

In the case of `Cc1cc2c(cc1C)[n+](=O)c(C(=O)/C=C/c1ccc3c(c1)OCO3)c(C)n2[O-]`, the TGI (RXF-631 renal) was > 91.3 µM, the TGI (XF 498 CNS) was 54.9 µM and the TGI (HCT-15 colon) was > 100 µM. For the same molecule, the TGI (SK-MEL-5 melanoma) was > 100 µM, the TGI (MDA-MB-231 breast) was > 100 µM and the TGI (SF-539 CNS) was > 100 µM. For the same molecule, the TGI (SK-MEL-2 melanoma) was 88.6 µM, the TGI (HOP-92 NSCLC) was 69.1 µM and the TGI (RPMI-8226 leukemia) was > 100 µM. The TGI (M19-MEL melanoma) was > 100 µM, the TGI (MALME-3M melanoma) was > 100 µM and the TGI (SK-OV-3 ovarian) was 52.2 µM. The TGI (HOP-18 NSCLC) was > 100 µM, the TGI (OVCAR-8 ovarian) was > 100 µM and the TGI (786-0 renal) was > 100 µM. The TGI (SN12C renal) was > 100 µM, the TGI (UO-31 renal) was > 100 µM and the TGI (HT29 colon) was > 100 µM. For the same molecule, the TGI (SW-620 colon) was > 100 µM, the TGI (HOP-62 NSCLC) was 59.1 µM and the TGI (A549 NSCLC) was > 100 µM. For the same molecule, the TGI (SR leukemia) was > 100 µM, the TGI (HS 578T breast) was 64 µM and the TGI (SNB-19 CNS) was 79.3 µM. The TGI (BT-549 breast) was > 100 µM, the TGI (OVCAR-5 ovarian) was > 100 µM and the TGI (SNB-75 CNS) was 39.9 µM. The TGI (CCRF-CEM leukemia) was > 100 µM, the TGI (MDA-N) was > 100 µM and the TGI (NCI-H226 lung) was > 100 µM. The TGI (DLD-1 colon) was > 100 µM, the TGI (SK-MEL-28 melanoma) was > 100 µM and the TGI (U251 CNS) was 62.7 µM. For the same molecule, the TGI (ACHN renal) was > 75.8 µM, the TGI (LOX IMVI melanoma) was > 85.2 µM and the TGI (HCC-2998 colon) was > 100 µM. For the same molecule, the TGI (OVCAR-3 ovarian) was > 100 µM, the TGI (IGROV1 ovarian) was > 81.5 µM and the TGI (SF-268 CNS) was > 76.9 µM. For the same molecule, the TGI (DMS 114 small cell lung) was > 84.5 µM, the TGI (RXF 393 renal) was 66.6 µM and the TGI (HCT-116 colon) was > 100 µM. The TGI (M14 melanoma) was > 100 µM, the TGI (NCI-H522 lung) was 79.4 µM and the TGI (NCI-H23 lung) was > 89.1 µM. For the same molecule, the TGI (MDA-MB-435) was > 100 µM, the TGI (DMS 273 small cell lung) was > 100 µM and the TGI (OVCAR-4 ovarian) was > 100 µM. For the same molecule, the TGI (K-562 leukemia) was > 100 µM, the TGI (SF-295 CNS) was 50 µM and the TGI (EKVX NSCLC) was > 100 µM. For the same molecule, the TGI (MCF7 breast) was > 100 µM, the TGI (UACC-257 melanoma) was > 100 µM and the TGI (KM20L2 colon) was > 100 µM. For the same molecule, the TGI (NCI-H460 lung) was > 100 µM, the TGI (DU-145 prostate) was > 100 µM and the TGI (TK-10 renal) was 53.3 µM. For the same molecule, the TGI (T-47D breast) was > 100 µM, the TGI (PC-3 prostate) was > 100 µM and the TGI (SNB-78 CNS) was > 100 µM. For the same molecule, the TGI (NCI/ADR-RES ovarian) was > 100 µM, the TGI (HL-60(TB) leukemia) was > 100 µM and the TGI (UACC-62 melanoma) was 59.5 µM. For the same molecule, the TGI (COLO 205 colon) was > 100 µM, the TGI (MOLT-4 leukemia) was > 100 µM and the TGI (A498 renal) was > 100 µM. The TGI (CAKI-1 renal) was > 89 µM and the TGI (KM12 colon) was > 100 µM.
`CCCCCCCCCCCCCCCCNCC(O)CN` (centres undefined) was tested, and the TGI (XF 498 CNS) was 23.9 µM, the TGI (HCT-15 colon) was 4.38 µM and the TGI (SN12K1 renal) was 3.44 µM. For the same molecule, the TGI (SK-MEL-5 melanoma) was 27 µM, the TGI (SF-539 CNS) was 4.72 µM and the TGI (SK-MEL-2 melanoma) was 36.2 µM. For the same molecule, the TGI (HOP-92 NSCLC) was 9.36 µM, the TGI (RPMI-8226 leukemia) was 4.52 µM and the TGI (M19-MEL melanoma) was 5.79 µM. The TGI (MALME-3M melanoma) was 30.2 µM, the TGI (SK-OV-3 ovarian) was 35.9 µM and the TGI (HOP-18 NSCLC) was 14 µM. The TGI (OVCAR-8 ovarian) was 12.3 µM, the TGI (SN12C renal) was 12.9 µM and the TGI (UO-31 renal) was 25.3 µM. The TGI (HT29 colon) was 4.44 µM, the TGI (SW-620 colon) was 3.17 µM and the TGI (HOP-62 NSCLC) was 33.4 µM. The TGI (A549 NSCLC) was 10.2 µM, the TGI (SNB-19 CNS) was 36 µM and the TGI (OVCAR-5 ovarian) was 19.7 µM. It also gave a TGI (SNB-75 CNS) of 11 µM, a TGI (CCRF-CEM leukemia) of 3.72 µM and a TGI (NCI-H226 lung) of 25.6 µM. It also gave a TGI (DLD-1 colon) of 3.66 µM, a TGI (SK-MEL-28 melanoma) of 25.8 µM and a TGI (U251 CNS) of 6.26 µM. For the same molecule, the TGI (LOX IMVI melanoma) was 3.45 µM, the TGI (HCC-2998 colon) was 5.84 µM and the TGI (P388 leukemia) was 2.68 µM. The TGI (OVCAR-3 ovarian) was 6.52 µM, the TGI (IGROV1 ovarian) was 18.9 µM and the TGI (SF-268 CNS) was 12.9 µM. It also gave a TGI (DMS 114 small cell lung) of 21 µM, a TGI (RXF 393 renal) of 8.16 µM and a TGI (HCT-116 colon) of 3.64 µM. The TGI (NCI-H522 lung) was 33.2 µM, the TGI (NCI-H23 lung) was 16.8 µM and the TGI (DMS 273 small cell lung) was 14.3 µM. The TGI (OVCAR-4 ovarian) was 12.1 µM, the TGI (K-562 leukemia) was 3.35 µM and the TGI (SF-295 CNS) was 6.93 µM. It also gave a TGI (EKVX NSCLC) of 44.6 µM, a TGI (MCF7 breast) of 6.47 µM and a TGI (UACC-257 melanoma) of 23.7 µM. The TGI (KM20L2 colon) was 7.19 µM, the TGI (NCI-H460 lung) was 3.56 µM and the TGI (SNB-78 CNS) was 5.83 µM. For the same molecule, the TGI (NCI/ADR-RES ovarian) was 4.72 µM, the TGI (HL-60(TB) leukemia) was 4.93 µM and the TGI (UACC-62 melanoma) was 17 µM. The TGI (COLO 205 colon) was 3.81 µM, the TGI (MOLT-4 leukemia) was 4.87 µM and the TGI (A498 renal) was 41.9 µM. For the same molecule, the TGI (CAKI-1 renal) was 30 µM and the TGI (KM12 colon) was 3.66 µM.

Source: PubChem BioAssay (NCI)
